# Experimental data as given in publication PMC6956804, “Potent antibacterial activity of MSI-1 derived from the magainin 2 peptide against drug-resistant bacteria” (Theranostics, 2020).
# Structures can show the parent of a compound that is named as a salt.
# Tests used:
# [1] = system: Penicillin-resistant E. coli; experiment: Local E. coli infection in scalded mouse model; format: in vivo, mice; details: 7th day; MSI-1 5 and 10 mg/kg, polymyxin B; p<0.01 vs the model group
# Description: To further investigate whether MSI-1 could protect from bacterial infection of the skin, mice were anesthetized with pentobarbital sodium (50 mg/kg, i.p) and shaved on the dorsal surfaces. The depilated skin was secured with 2-cm-diameter plastic containers that filled up with boiling water at contact time 10 s. Afterwards, a full-thickness wound (2 cm in diameter) was cut on the burned skin of each mouse. Penicillin-resistant E. coli suspension (100 µl, 1× 10^10 CFU/ml) was slowly inoculated over wound with a pipette tip, and a gentle stream of air was aimed over the inoculation site until skin appeared wet but absent of any standing volume from the inoculum suspension. Two hours later, vehicle (3% CMC-Na), MSI-1 or polymyxin, which was suspended in sterile CMC-Na (3%) in PBS at concentration of 10, 5, 2.5 mg/ml (MSI-1) or 5 mg/ml (polymyxin), was inoculated on the same area with a pipette tip, 1 ml/kg, once a day (n=15 per group). Mice were fed in cages individually to avoid cross infection and were treated daily for 7 consecutive days. At 3rd and 7th days, cutaneous wound healing and bacteria counts in skin lesion were measured. Moreover, 12 h after the last treatment, blood samples were collected from the retro-orbital venous plexus under anesthesia (pentobarbital sodium, 50 mg/kg). Finally, all animals were euthanized by cervical dislocation to collect the lung samples for counting live bacteria. The contents of TNF-α and IL-6 in skin homogenates and serum were measured by ELISA. Skin lesion was fixed by 4% paraformaldehyde for H&E staining. The expression levels of EGF and VEGF in skin lesion were examined by immunohistochemistry. In addition, the wound scratch assay was also performed on HaCaT cells to further test whether MSI-1 improved wound healing by promoting keratinocyte migration.
# [2] = system: penicillin resistant-E. coli isolates; experiment: Acute systemic E. coli infection in mice; format: in vivo, BALB/c mice; details: 7 days; polymyxin 5 mg/kg
# Description: BALB/c mice (5-6 weeks) were purchased from the Laboratory Animal Center of Yangzhou University (Yangzhou, Jiangsu, China) and intraperitoneally (ip) injected with 500 μl (5× 10^8 CFU/ml) of penicillin resistant-E. coli isolates. Mice in MSI-1 treated groups (10, 5 and 2.5 mg/kg, n=16/group) and polymyxin treated group (5 mg/kg) were administered after 2 h post bacterial inoculation. After 12 h, six mice in each group were anesthetized with pentobarbital sodium (50 mg/kg body weight, i.p) and euthanized by cervical dislocation to count bacterial colonies in blood, lung, spleen, kidney and liver. Lung homogenates were collected for Gram staining. Moreover, serum TNF-α and IL-6 were measured by ELISA kits. The procedure of H&E staining for mouse lung was adapted from a published report. The survival and weight of other mice were monitored daily up to 7 days.
# E. cloacae S1 (AmpC (+)) = experiment: microbe, parasite or virus in culture; format: cell-based; details: Enterobacter cloacae
# Description: (§1) Bacterial strains were purchased from the American Type Culture Collection (ATCC). All clinical strains were isolated from human clinical specimens by the Medical Laboratory Center of Zhongda Hospital (Nanjing, Jiangsu, China). Ndm-1, tem-1, ctx-m-1, shv-1 -carrying bacteria were constructed as previously described. The recombinant bacteria carrying drug-resistant genes were prepared in LB nutrient and induced by IPTG (1 mM) for 4 h before text. Other bacterial strains were respectively prepared in MHB and Columbia Blood Agar Base.
# (§2) A standard micro-broth serial dilution assay was used to measure MIC of peptides. MIC was obtained by a microplate reader at 600 nm. MBC was determined as previously described.
# S. epidermidis ATCC35984 = experiment: microbe, parasite or virus in culture; format: cell-based; details: Staphylococcus epidermidis, read-out: MIC
# Description: as §1, §2
# E. coli A2 (ESBLs (+)) = experiment: microbe, parasite or virus in culture; format: cell-based; details: Escherichia coli
# Description: as §1, §2
# S. aureus ATCC25923 = experiment: microbe, parasite or virus in culture; format: cell-based; details: Staphylococcus aureus, read-out: MIC
# Description: as §1, §2
# E. faecalis = experiment: microbe, parasite or virus in culture; format: cell-based; details: Enterococcus faecalis, read-out: MIC
# Description: as §1, §2
# P. aeruginosa ATCC27853 = experiment: microbe, parasite or virus in culture; format: cell-based; details: Pseudomonas aeruginosa, read-out: MIC
# Description: as §1, §2
# E. coli A5 (ESBLs (+)) = experiment: microbe, parasite or virus in culture; format: cell-based; details: Escherichia coli
# Description: as §1, §2
# Shigella flexneri = experiment: microbe, parasite or virus in culture; format: cell-based
# Description: as §1, §2
# E. coli ATCC25922 = experiment: microbe, parasite or virus in culture; format: cell-based; details: Escherichia coli, micro-broth serial dilution, 600 nm, read-out: MIC
# Description: as §1, §2
# S. pneumoniae ATCC 49619 = experiment: microbe, parasite or virus in culture; format: cell-based; details: Streptococcus pneumoniae, ATCC49619, read-out: MIC
# Description: as §1, §2
# [3] = system: P. aeruginosa T1 (ESBLs (+)); experiment: microbe, parasite or virus in culture; format: cell-based; details: Pseudomonas aeruginosa
# Description: as §1, §2
# E. faecium = experiment: microbe, parasite or virus in culture; format: cell-based; details: Enterococcus faecium, read-out: MIC
# Description: as §1, §2
# E. cloacae S3 (AmpC (+)) = experiment: microbe, parasite or virus in culture; format: cell-based; details: Enterobacter cloacae
# Description: as §1, §2
# [4] = system: P. aeruginosa T6 (ESBLs (+)); experiment: microbe, parasite or virus in culture; format: cell-based; details: Pseudomonas aeruginosa
# Description: as §1, §2
# [5] = system: P. aeruginosa T8 (ESBLs (+)); experiment: microbe, parasite or virus in culture; format: cell-based; details: Pseudomonas aeruginosa
# Description: as §1, §2
# E. coli A9 (ESBLs (+)) = experiment: microbe, parasite or virus in culture; format: cell-based; details: Escherichia coli
# Description: as §1, §2
# MSSE E8 = experiment: microbe, parasite or virus in culture; format: cell-based, Staphylococcus epidermidis; details: Staphylococcus epidermidis; MSSE E8, clinical strain; read-out: MIC
# Description: as §1, §2
# MRSE N104 = experiment: microbe, parasite or virus in culture; format: cell-based, Staphylococcus epidermidis; details: Staphylococcus epidermidis, MRSE
# Description: as §1, §2
# MRSE N109 = experiment: microbe, parasite or virus in culture; format: cell-based, Staphylococcus epidermidis; details: Staphylococcus epidermidis, MRSE
# Description: as §1, §2
# MSSE E3 = experiment: microbe, parasite or virus in culture; format: cell-based, Staphylococcus epidermidis; details: Staphylococcus epidermidis; MSSE E3, clinical strain; read-out: MIC
# Description: as §1, §2
# PRSP P105 = experiment: microbe, parasite or virus in culture; format: cell-based, Streptococcus pneumoniae; details: Streptococcus pneumoniae, PRSP
# Description: as §1, §2
# PISP F22 = experiment: microbe, parasite or virus in culture; format: cell-based, Streptococcus pneumoniae; details: Streptococcus pneumoniae; PISP F22, clinical strain; read-out: MIC
# Description: as §1, §2
# PISP F34 = experiment: microbe, parasite or virus in culture; format: cell-based, Streptococcus pneumoniae; details: Streptococcus pneumoniae; PISP F34, clinical strain; read-out: MIC
# Description: as §1, §2
# PRSP P112 = experiment: microbe, parasite or virus in culture; format: cell-based, Streptococcus pneumoniae; details: Streptococcus pneumoniae, PRSP
# Description: as §1, §2
# [6] = system: K. peneumoniae B4 (ESBLs (+)); experiment: organism not typed; format: cell-based
# Description: as §1, §2
# [7] = system: K. peneumoniae B6 (ESBLs (+)); experiment: organism not typed; format: cell-based
# Description: as §1, §2
# K. peneumoniae ATCC4352 = experiment: organism not typed; format: cell-based; details: read-out: MIC
# Description: as §1, §2
# [8] = system: K. peneumoniae B9 (ESBLs (+)); experiment: organism not typed; format: cell-based
# Description: as §1, §2
# MSSA D4 = experiment: microbe, parasite or virus in culture; format: cell-based, Staphylococcus aureus; details: Staphylococcus aureus; MSSA D4, clinical strain; read-out: MIC
# Description: as §1, §2
# MRSA M101 = experiment: microbe, parasite or virus in culture; format: cell-based, Staphylococcus aureus; details: Staphylococcus aureus, MRSA
# Description: as §1, §2
# MSSA D1 = experiment: microbe, parasite or virus in culture; format: cell-based, Staphylococcus aureus; details: Staphylococcus aureus; MSSA D1, clinical strain; read-out: MIC
# Description: as §1, §2
# MRSA M108 = experiment: microbe, parasite or virus in culture; format: cell-based, Staphylococcus aureus; details: Staphylococcus aureus, MRSA
# Description: as §1, §2
molecule,measurement,setting,value
Polymyxin B,bacterial colonies in the lung and blood,[1],obviously decreased
same,body weight,[2],marked weight maintenance effect
"CC1(C)S[C@@H]2[C@H](NC(=O)Cc3ccccc3)C(=O)N2[C@H]1C(=O)O [Penicillin, Penicillin G sodium salt]",MIC,E. cloacae S1 (AmpC (+)),> 256 µg/mL
same,MIC,S. epidermidis ATCC35984,0.5 µg/mL
same,MIC,E. coli A2 (ESBLs (+)),> 256 µg/mL
same,MIC,S. aureus ATCC25923,0.125 µg/mL
same,MIC,E. faecalis,> 256 µg/mL
same,MIC,P. aeruginosa ATCC27853,0.5 µg/mL
same,MIC,E. coli A5 (ESBLs (+)),> 256 µg/mL
same,MIC,Shigella flexneri,> 256 µg/mL
same,MIC,E. coli ATCC25922,0.25 µg/mL
same,MIC,S. pneumoniae ATCC 49619,0.25 µg/mL
same,MIC,[3],> 256 µg/mL
same,MIC,E. faecium,> 256 µg/mL
same,MIC,E. cloacae S3 (AmpC (+)),> 256 µg/mL
same,MIC,[4],> 256 µg/mL
same,MIC,[5],> 256 µg/mL
same,MIC,E. coli A9 (ESBLs (+)),> 256 µg/mL
same,MIC,MSSE E8,1 µg/mL
same,MIC,MRSE N104,> 256 µg/mL
same,MIC,MRSE N109,> 256 µg/mL
same,MIC,MSSE E3,2 µg/mL
same,MIC,PRSP P105,> 256 µg/mL
same,MIC,PISP F22,1 µg/mL
same,MIC,PISP F34,0.5 µg/mL
same,MIC,PRSP P112,> 256 µg/mL
same,MIC,[6],> 256 µg/mL
same,MIC,[7],> 256 µg/mL
same,MIC,K. peneumoniae ATCC4352,1 µg/mL
same,MIC,[8],> 256 µg/mL
same,MIC,MSSA D4,0.125 µg/mL
same,MIC,MRSA M101,> 256 µg/mL
same,MIC,MSSA D1,0.5 µg/mL
same,MIC,MRSA M108,> 256 µg/mL
